Legend:
[1] = tested on: lambsquarters; assay: Test C preemergence/postemergence greenhouse plant response rating 0 to 100; assay type: in vivo, Chenopodium album; details: POSTEMERGENCE
Source text: (§1) The compounds evaluated in this test were formulated in a non-phytoxic solvent and applied to the soil surface before plant seedlings emerged (preemergence application), to water that covered the soil surface (flood application), and to plants that were in the one-to-four leaf stage (postemergence application). A sandy loam soil was used for the preemergence and postemergence tests, while a silt loam soil was used in the flood test. Water depth was approximately 2.5 cm for the flood test and was maintained at this level for the duration of the test. Plant species in the preemergence and postemergence tests consisted of barley (Hordeum vulgare), bedstraw (Galium aparine), blackgrass (Alopecurus myosuroides), chickweed (Stellaria media), corn (Zea mays), cotton (Gossypium hirsutum), crabgrass (Digitaria sanguinalis), downy brome (Bromus tectorum), giant foxtail (Setaria faberii), lambsquarters (Chenopodium album), morningglory (Ipomoea hederacea), pigweed ([…]), rape (Brassica napus), ryegrass (Lolium multiflorum), sorghum (Sorghum bicolor), soybean (Glycine max), speedwell (Veronica persica), sugar beet (Beta vulgaris), velvetleaf (Abutilon theophrasti), wheat (Triticum aestivum), wild buckwheat (Polygonum convolvulus), and wild oat (Avena fatua). All plant species were planted one day before application of the compound for the preemergence portion-of this test. Plantings of these species were adjusted to produce plants of appropriate size for the post-emergence portion of the test. […] All plant species were grown using normal greenhouse practices. Visual evaluations of injury expressed on treated plants, when compared to untreated controls, were recorded approximately fourteen to twenty one days after application of the test compound. […] A dash (-) response means no test result.

[2] = tested on: wild buckwheat; assay: as above; assay type: in vivo, Polygonum convolvulus; details: POSTEMERGENCE
Source text: as §1

[3] = tested on: corn; assay: Test B preemergence/postemergence greenhouse plant response rating 0 to 10; assay type: in vivo, Zea mays; details: Rate 50 g/ha, 0 to 10 scale
Summary of the method: (§2)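 Test chemicals were sprayed onto freshly planted seed and, concurrently, onto young plants between the one and four leaf stage. After a twelve- to sixteen-day greenhouse period, each species was visually compared with untreated controls.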

[4] = tested on: blackgrass; assay: as above; assay type: in vivo, Alopecurus myosuroides; details: 0 to 10 scale
Summary of the method: as §2

[5] = tested on: cotton; assay: as above; assay type: in vivo, Gossypium hirsutum; details: 0 to 10 scale
Summary of the method: as §2

[6] = tested on: rice; assay: as above; assay type: in vivo, Oryza sativa; details: 0 to 10 scale
Summary of the method: as §2

[7] = tested on: sugar beet; assay: as above; assay type: in vivo, Beta vulgaris; details: 0 to 10 scale
Summary of the method: as §2

[8] = tested on: velvetleaf; assay: Test C preemergence/postemergence greenhouse plant response rating 0 to 100; assay type: in vivo, Abutilon theophrasti; details: POSTEMERGENCE
Source text: as §1

[9] = tested on: wheat; assay: as above; assay type: in vivo, Triticum aestivum; details: POSTEMERGENCE
Source text: as §1

[10] = tested on: sorghum; assay: Test B preemergence/postemergence greenhouse plant response rating 0 to 10; assay type: in vivo, Sorghum bicolor; details: 0 to 10 scale
Summary of the method: as §2

[11] = tested on: wheat; assay: as above; assay type: in vivo, Triticum aestivum; details: 0 to 10 scale
Summary of the method: as §2

[12] = tested on: cotton; assay: Test C preemergence/postemergence greenhouse plant response rating 0 to 100; assay type: in vivo, Gossypium hirsutum; details: POSTEMERGENCE
Source text: as §1

[13] = tested on: wild oat; assay: Test B preemergence/postemergence greenhouse plant response rating 0 to 10; assay type: in vivo, Avena fatua; details: 0 to 10 scale
Summary of the method: as §2

[14] = tested on: crabgrass; assay: as above; assay type: in vivo, Digitaria spp.; details: 0 to 10 scale
Summary of the method: as §2

[15] = tested on: purple nutsedge; assay: as above; assay type: in vivo, Cyperus rotundus; details: 0 to 10 scale
Summary of the method: as §2

[16] = tested on: pigweed; assay: Test C preemergence/postemergence greenhouse plant response rating 0 to 100; assay type: in vivo, Amaranthusretroflexus; details: POSTEMERGENCE
Source text: as §1

Structure (SMILES): C#CCN1C(=O)COc2cc(F)c(-c3nn4c(c3Br)CCCC4)cc21 [Compound 56]
- Plant response rating Lambsquarters ([1]; 62 g/ha, 0 to 100 scale): 100
- Plant response rating (0 to 100), Lambsquarters ([1]; Rate 1 g/ha): 85
- Plant response rating (0 to 100), Lambsquarters ([1]; Rate 4 g/ha): 100
- Plant response rating (0 to 100), Lambsquarters ([1]; Rate 16 g/ha): 100
- Plant response rating, Wild buckwheat ([2]; 62 g/ha, 0 to 100 scale): 100
- Plant response rating (0 to 100), Wild buckwheat ([2]; Rate 1 g/ha): 100
- Plant response rating (0 to 100), Wild buckwheat ([2]; Rate 4 g/ha): 100
- Plant response rating (0 to 100), Wild buckwheat ([2]; Rate 16 g/ha): 100
- Plant response rating, Corn ([3]; POSTEMERGENCE): 3
- Plant response rating, Corn ([3]; PREEMERGENCE): 0
- Plant response rating, Blackgrass ([4]; POSTEMERGENCE, Rate 10 g/ha): 6
- Plant response rating, Blackgrass ([4]; POSTEMERGENCE, Rate 50 g/ha): 7
- Plant response rating, Blackgrass ([4]; PREEMERGENCE, Rate 10 g/ha): 3
- Plant response rating, Blackgrass ([4]; PREEMERGENCE, Rate 50 g/ha): 6
- Plant response rating, Cotton ([5]; POSTEMERGENCE, Rate 10 g/ha): 10
- Plant response rating, Cotton ([5]; POSTEMERGENCE, Rate 50 g/ha): 10
- Plant response rating, Cotton ([5]; PREEMERGENCE, Rate 10 g/ha): 0
- Plant response rating, Cotton ([5]; PREEMERGENCE, Rate 50 g/ha): 0
- Plant response rating, Rice ([6]; POSTEMERGENCE, Rate 10 g/ha): 3
- Plant response rating, Rice ([6]; POSTEMERGENCE, Rate 50 g/ha): 4
- Plant response rating, Rice ([6]; PREEMERGENCE, Rate 50 g/ha): 0
- Plant response rating, Sugar beet ([7]; POSTEMERGENCE, Rate 10 g/ha): 10
- Plant response rating, Sugar beet ([7]; POSTEMERGENCE, Rate 50 g/ha): 10
- Plant response rating, Sugar beet ([7]; PREEMERGENCE, Rate 50 g/ha): 9
- Plant response rating, Velvetleaf ([8]; 62 g/ha, 0 to 100 scale): 100
- Plant response rating (0 to 100), Velvetleaf ([8]; Rate 1 g/ha): 100
- Plant response rating (0 to 100), Velvetleaf ([8]; Rate 4 g/ha): 100
- Plant response rating (0 to 100), Velvetleaf ([8]; Rate 16 g/ha): 100
- Plant response rating, Wheat ([9]; 62 g/ha, 0 to 100 scale): 60
- Plant response rating (0 to 100), Wheat ([9]; Rate 1 g/ha): 30
- Plant response rating (0 to 100), Wheat ([9]; Rate 4 g/ha): 50
- Plant response rating (0 to 100), Wheat ([9]; Rate 16 g/ha): 60
- Plant response rating, Sorghum ([10]; POSTEMERGENCE, Rate 10 g/ha): 3
- Plant response rating, Sorghum ([10]; POSTEMERGENCE, Rate 50 g/ha): 2
- Plant response rating, Sorghum ([10]; PREEMERGENCE, Rate 50 g/ha): 0
- Plant response rating, Wheat ([11]; POSTEMERGENCE, Rate 10 g/ha): 7
- Plant response rating, Wheat ([11]; POSTEMERGENCE, Rate 50 g/ha): 7
- Plant response rating, Wheat ([11]; PREEMERGENCE, Rate 50 g/ha): 4
- Plant response rating, Cotton ([12]; 62 g/ha, 0 to 100 scale): 100
- Plant response rating (0 to 100), Cotton ([12]; Rate 1 g/ha): 100
- Plant response rating (0 to 100), Cotton ([12]; Rate 4 g/ha): 100
- Plant response rating (0 to 100), Cotton ([12]; Rate 16 g/ha): 100
- Plant response rating, Wild oat ([13]; POSTEMERGENCE, Rate 10 g/ha): 6
- Plant response rating, Wild oat ([13]; POSTEMERGENCE, Rate 50 g/ha): 6
- Plant response rating, Wild oat ([13]; PREEMERGENCE, Rate 50 g/ha): 5
- Plant response rating, Crabgrass ([14]; POSTEMERGENCE, Rate 10 g/ha): 4
- Plant response rating, Crabgrass ([14]; POSTEMERGENCE, Rate 50 g/ha): 6
- Plant response rating, Crabgrass ([14]; PREEMERGENCE, Rate 10 g/ha): 0
- Plant response rating, Crabgrass ([14]; PREEMERGENCE, Rate 50 g/ha): 3
- Plant response rating, Nutsedge ([15]; POSTEMERGENCE, Rate 10 g/ha): 4
- Plant response rating, Nutsedge ([15]; POSTEMERGENCE, Rate 50 g/ha): 7
- Plant response rating, Nutsedge ([15]; PREEMERGENCE, Rate 50 g/ha): 4
- Plant response rating Pigweed ([16]; 62 g/ha, 0 to 100 scale): 100
- Plant response rating (0 to 100), Pigweed ([16]; Rate 1 g/ha): 100
- Plant response rating (0 to 100), Pigweed ([16]; Rate 4 g/ha): 100
- Plant response rating (0 to 100), Pigweed ([16]; Rate 16 g/ha): 100
